Calls of active or inactive are those of the source.
Tests used:
[1] = viability loss in CEM21 cells – cell-based, CellTiter-Glo luminescence, cherry-picked, cytotoxicity control for viral fusion inhibitor project, dose response (AID 652042); type: functional;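 note: potency for signal decrease meaning cytotoxicity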
[2] = blockers of HIV-1 envelope-mediated cell-cell fusion – cherry-pick, dose response (AID 652057); type: functional, cell-based
Beta-galactosidase = Beta-galactosidase (Escherichia coli, UniProt Q8VNN2); test: Dose response counterscreen for EBI2 assay utilizing the enzyme, b-galactosidase.; type: functional
Caspase-3 = molecular target: T1, Caspase-3 (Homo sapiens, UniProt P42574); type: functional;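 note: Dose-response selectivity test against caspase-3 for candidate inhibitors of sentrin-specific proteases (SENPs)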
T1 sequence (P42574 whole entry): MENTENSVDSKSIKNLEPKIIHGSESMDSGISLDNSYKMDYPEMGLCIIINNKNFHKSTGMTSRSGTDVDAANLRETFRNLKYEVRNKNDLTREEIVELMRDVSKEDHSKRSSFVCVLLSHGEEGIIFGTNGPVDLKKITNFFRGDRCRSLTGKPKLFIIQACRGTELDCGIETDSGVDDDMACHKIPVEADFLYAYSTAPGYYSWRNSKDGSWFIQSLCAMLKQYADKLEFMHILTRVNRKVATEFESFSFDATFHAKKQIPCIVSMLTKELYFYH

[3] = molecular target: T2, Sentrin-specific protease 6 (Homo sapiens, UniProt Q9GZR1); type: functional;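 note: Luminescence-based dose-response confirmatory assay of SENP6 inhibition, following up an ultra-high-throughput screen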
T2 sequence (Q9GZR1 whole entry): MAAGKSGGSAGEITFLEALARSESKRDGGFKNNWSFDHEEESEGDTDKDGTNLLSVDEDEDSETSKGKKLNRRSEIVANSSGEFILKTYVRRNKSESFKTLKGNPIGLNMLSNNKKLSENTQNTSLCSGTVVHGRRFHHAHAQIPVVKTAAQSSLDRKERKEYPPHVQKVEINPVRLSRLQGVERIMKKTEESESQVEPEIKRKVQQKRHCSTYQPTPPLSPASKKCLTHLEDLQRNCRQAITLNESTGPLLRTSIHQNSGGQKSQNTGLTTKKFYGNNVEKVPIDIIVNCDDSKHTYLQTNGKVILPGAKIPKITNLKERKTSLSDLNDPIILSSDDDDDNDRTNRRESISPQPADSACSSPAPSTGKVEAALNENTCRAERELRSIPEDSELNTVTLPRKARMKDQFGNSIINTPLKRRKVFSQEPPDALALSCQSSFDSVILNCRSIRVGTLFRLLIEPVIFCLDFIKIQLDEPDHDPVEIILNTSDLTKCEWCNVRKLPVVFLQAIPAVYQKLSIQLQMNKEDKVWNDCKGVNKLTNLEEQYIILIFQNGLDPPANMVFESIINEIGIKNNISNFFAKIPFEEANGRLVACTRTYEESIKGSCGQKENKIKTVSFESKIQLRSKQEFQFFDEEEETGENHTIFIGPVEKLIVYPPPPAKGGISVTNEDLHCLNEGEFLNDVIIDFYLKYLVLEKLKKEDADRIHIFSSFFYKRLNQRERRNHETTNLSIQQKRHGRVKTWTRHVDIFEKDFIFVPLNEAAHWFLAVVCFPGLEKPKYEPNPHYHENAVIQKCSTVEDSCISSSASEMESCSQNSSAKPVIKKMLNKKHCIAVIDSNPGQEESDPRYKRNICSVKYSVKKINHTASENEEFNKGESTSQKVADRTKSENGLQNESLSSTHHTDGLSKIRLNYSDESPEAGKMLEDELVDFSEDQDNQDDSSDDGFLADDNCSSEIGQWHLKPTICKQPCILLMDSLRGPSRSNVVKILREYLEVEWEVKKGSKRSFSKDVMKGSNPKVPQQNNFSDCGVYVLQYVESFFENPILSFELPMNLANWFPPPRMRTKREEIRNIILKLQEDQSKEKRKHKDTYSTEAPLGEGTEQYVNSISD

[4] = molecular target: T3, Sentrin-specific protease 8 (Homo sapiens, UniProt Q96LD8); type: functional;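 note: luminescence read-out of SENP8 inhibition, dose-response confirmation following an ultra-high-throughput screen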
T3 sequence (Q96LD8 whole entry): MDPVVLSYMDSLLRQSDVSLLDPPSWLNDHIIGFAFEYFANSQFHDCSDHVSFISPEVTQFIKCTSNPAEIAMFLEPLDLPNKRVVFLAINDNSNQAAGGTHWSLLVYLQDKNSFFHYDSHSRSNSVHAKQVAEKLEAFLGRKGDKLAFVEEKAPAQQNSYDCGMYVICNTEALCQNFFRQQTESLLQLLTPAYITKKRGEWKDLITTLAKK

[5] = molecular target: T4, Sentrin-specific protease 7 (Homo sapiens, UniProt Q9BQF6); type: functional;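 note: Luminescence-based dose-response confirmation of ultra-high-throughput screening hits, measuring inhibition of SENP7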
T4 sequence (Q9BQF6 whole entry): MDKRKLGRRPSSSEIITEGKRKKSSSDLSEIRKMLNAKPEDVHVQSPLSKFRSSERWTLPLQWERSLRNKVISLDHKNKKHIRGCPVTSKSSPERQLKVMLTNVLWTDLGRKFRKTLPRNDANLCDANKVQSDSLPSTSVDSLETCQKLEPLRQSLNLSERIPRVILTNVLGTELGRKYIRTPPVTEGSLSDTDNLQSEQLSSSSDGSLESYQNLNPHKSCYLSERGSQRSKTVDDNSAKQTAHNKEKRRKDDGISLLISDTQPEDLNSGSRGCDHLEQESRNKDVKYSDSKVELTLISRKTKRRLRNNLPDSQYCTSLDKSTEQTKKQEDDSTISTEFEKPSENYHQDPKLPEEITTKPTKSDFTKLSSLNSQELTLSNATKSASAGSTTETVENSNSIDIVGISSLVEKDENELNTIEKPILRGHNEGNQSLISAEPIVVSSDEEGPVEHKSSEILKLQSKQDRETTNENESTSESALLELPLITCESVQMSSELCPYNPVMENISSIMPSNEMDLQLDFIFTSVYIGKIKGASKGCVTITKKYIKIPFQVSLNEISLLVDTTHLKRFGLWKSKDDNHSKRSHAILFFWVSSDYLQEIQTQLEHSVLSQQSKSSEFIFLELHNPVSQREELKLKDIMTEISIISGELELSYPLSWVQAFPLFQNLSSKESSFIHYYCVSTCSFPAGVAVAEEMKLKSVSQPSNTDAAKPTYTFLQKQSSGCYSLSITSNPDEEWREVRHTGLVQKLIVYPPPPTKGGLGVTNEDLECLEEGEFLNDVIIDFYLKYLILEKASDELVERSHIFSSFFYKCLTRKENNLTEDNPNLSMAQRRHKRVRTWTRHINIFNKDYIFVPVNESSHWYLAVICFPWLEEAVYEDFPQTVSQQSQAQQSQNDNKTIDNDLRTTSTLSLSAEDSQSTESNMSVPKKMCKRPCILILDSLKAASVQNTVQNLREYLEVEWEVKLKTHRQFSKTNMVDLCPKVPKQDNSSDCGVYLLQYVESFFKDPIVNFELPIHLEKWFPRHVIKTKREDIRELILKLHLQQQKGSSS

SN12K1 = test: cells; type: functional; settings: Homo sapiens
P388 = test: cells; type: functional; settings: Mus musculus
P388/ADR = test: cells; type: functional; settings: Mus musculus
Large T antigen = Large T antigen (Simian virus 40, UniProt P03070); type: functional, Betapolyomavirus macacae;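 note: Confirmatory-stage PubChem screen for compounds that inhibit SV40 T antigen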
Leucine aminopeptidase = molecular target: T5, Leucine aminopeptidase (Plasmodium falciparum 3D7, UniProt Q8IL11); test: P. falciparum M17LAP inhibitors, primary screen, biochemical, fluorogenic H-Leu-NHMec substrate, 1536-well (AID 1619); type: functional
T5 sequence (Q8IL11 whole entry): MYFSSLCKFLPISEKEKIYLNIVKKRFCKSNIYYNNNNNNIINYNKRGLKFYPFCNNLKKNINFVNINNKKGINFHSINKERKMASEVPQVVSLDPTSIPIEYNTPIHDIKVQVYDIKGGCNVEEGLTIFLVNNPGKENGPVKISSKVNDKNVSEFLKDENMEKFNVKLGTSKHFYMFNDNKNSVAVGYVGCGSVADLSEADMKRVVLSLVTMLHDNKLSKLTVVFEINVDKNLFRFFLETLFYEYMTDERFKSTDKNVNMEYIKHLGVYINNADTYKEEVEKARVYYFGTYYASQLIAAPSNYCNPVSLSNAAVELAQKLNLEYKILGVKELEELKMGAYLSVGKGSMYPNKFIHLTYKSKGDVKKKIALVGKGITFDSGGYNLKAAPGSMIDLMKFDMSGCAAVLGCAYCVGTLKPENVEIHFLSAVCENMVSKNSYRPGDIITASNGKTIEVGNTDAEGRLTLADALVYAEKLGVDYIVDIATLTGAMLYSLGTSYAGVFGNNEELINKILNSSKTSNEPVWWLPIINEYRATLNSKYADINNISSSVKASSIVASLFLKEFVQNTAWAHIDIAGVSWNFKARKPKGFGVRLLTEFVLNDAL

[6] = general mammalian cell viability loss – activator set, cherry-pick, cytotoxicity control for miR-122 modulator project, dose response (AID 720690); type: functional, cell-based;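 note: HEK293T human cells scored for general mammalian cytotoxicity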
[7] = activation of miR-122 Renilla sensor silencing – cell-based, Huh7 psiCHECK-miR122, Renilla luciferase, cherry-picked, dose response (AID 651956); type: functional;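 note: huh7 hepatoma cells stably carrying a psiCHECK-2 miR-122 sensor plasmid; renilla luciferase signal reporting endogenous miR-122 activity after 48 h compound exposure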
[8] = microbe, parasite or virus in culture; type: functional; settings: Mycobacterium tuberculosis
[9] = off-target signal loss in HeLa-CEM21 co-culture – HeLa F-luc CTL cells, cherry-picked, counter-screen for HIV-1 Env fusion inhibitor project, dose response (AID 652040); type: functional, cell-based;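 note: potency for signal decrease marking cytotoxic or nonspecific inhibition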
[10] = HIV-1 AD8 envelope cell-cell fusion blockers – cherry-pick, dose response (AID 652062); type: functional, cell-based;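 note: luciferase signal from cell-cell fusion driven by HIV-1 clade B AD8 Env; potency is for inhibitors of fusion seen as a drop in luminescence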
[11] = blockers of HIV-1 ZM109 envelope-driven cell-cell fusion – HeLa effector, CEM target cells, luciferase, cherry-pick, dose response (AID 652058); type: functional, cell-based;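 note: luciferase signal from HIV-1 Env mediated cell-cell fusion of effector and target cells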

Sequence of Beta-galactosidase (Q8VNN2 whole entry): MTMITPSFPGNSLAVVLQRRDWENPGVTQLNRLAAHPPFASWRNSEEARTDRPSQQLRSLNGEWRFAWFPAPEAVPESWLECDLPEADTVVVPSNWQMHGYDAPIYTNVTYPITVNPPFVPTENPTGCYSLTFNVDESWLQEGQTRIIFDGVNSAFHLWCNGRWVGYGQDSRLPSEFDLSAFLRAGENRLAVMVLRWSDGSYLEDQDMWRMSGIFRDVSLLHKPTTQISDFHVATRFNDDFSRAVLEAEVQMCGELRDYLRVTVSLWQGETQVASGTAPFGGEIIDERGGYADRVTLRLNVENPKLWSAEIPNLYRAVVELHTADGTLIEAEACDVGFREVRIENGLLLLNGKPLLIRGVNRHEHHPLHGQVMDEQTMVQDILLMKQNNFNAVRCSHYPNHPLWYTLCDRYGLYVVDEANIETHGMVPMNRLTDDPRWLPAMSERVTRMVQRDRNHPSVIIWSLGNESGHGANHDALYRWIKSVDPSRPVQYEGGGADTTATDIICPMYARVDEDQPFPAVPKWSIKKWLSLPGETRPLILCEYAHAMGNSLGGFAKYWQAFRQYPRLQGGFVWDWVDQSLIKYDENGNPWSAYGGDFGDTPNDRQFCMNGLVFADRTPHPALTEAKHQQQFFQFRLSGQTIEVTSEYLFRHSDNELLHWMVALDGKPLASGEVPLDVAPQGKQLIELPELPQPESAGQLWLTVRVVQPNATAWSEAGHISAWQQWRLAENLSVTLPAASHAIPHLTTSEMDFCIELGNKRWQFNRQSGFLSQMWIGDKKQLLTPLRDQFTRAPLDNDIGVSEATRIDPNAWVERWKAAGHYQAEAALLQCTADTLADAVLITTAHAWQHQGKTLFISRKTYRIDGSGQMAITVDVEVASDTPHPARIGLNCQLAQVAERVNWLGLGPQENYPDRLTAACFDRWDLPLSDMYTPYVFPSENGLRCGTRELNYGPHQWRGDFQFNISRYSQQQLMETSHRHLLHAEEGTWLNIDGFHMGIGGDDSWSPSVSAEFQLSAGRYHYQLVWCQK
Sequence of Large T antigen (P03070 whole entry): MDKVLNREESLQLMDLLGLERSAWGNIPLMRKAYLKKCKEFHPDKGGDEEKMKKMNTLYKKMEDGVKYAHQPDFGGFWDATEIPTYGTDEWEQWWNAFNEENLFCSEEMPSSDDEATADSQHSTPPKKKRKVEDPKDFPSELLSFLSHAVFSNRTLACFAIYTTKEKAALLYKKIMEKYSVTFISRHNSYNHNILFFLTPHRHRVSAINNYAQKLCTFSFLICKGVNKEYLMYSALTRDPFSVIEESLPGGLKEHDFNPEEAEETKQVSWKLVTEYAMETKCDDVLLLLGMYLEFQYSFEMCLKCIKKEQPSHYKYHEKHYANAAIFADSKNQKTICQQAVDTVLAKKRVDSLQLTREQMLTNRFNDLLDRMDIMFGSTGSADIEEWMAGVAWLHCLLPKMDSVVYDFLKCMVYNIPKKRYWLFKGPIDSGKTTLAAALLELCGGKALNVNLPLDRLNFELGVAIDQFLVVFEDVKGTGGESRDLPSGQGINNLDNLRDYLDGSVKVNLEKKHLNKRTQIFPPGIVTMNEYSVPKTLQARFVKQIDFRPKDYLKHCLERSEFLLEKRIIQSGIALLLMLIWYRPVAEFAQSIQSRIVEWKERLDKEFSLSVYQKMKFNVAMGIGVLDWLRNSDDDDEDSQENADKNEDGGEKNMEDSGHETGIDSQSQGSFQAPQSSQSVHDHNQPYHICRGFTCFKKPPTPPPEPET

## COc1ccc2c3c([nH]c2c1)[C@@H](CO)N(C(=O)Nc1cccc(F)c1)CC31CCN(S(=O)(=O)c2ccccc2)CC1
[1]
  AC50: 21 µM (active)
[2]
  AC50: 23.2 µM (active)

## Cc1[nH]c2ccc(C(=O)N3CCN(c4ccc(F)cc4)CC3)cc2c1C
Beta-galactosidase
  IC50: > 80 µM (inactive)

## Nc1ccc(/C=C/c2ccc3ncccc3c2)cc1
Caspase-3
  IC50: 22.8 µM (active)
[3]
  IC50: 9.32 µM (active)
[4]
  IC50: > 100 µM (inactive)
[5]
  IC50: 10.4 µM (active)

## CCOC(=O)/C(O)=C1\C(=O)N(C)C(=O)C1c1ccc(OC)c(OC)c1 (configuration not stated)
SN12K1
  GI50: > 100 µM (inactive)
P388
  GI50: > 100 µM (inactive)
P388/ADR
  GI50: > 31.6 µM (inactive)

## CCC1(O)CC(OC2CC(N(C)C)C(OC3CC4OC5CC(=O)C(C)OC5OC4C(C)O3)C(C)O2)c2c(cc3c(c2O)C(=O)c2c(O)ccc(O)c2C3=O)C1C(=O)OC (configuration not stated)
SN12K1
  GI50: 0.00741 µM (active)
P388
  GI50: 0.000368 µM (active)
P388/ADR
  GI50: 0.000703 µM (active)

## CC1=C(C(=O)Nc2ccc(Cl)c(C(=O)OC(C)C)c2)SCCO1
SN12K1
  GI50: 58.6 µM (inactive)
P388
  GI50: 23.2 µM (inactive)
P388/ADR
  GI50: 29.2 µM (inactive)

## Cc1cc(C)n(-c2ccc(C(=O)N3CCN(S(=O)(=O)c4ccc(Br)cc4Cl)CC3)cc2)n1
Beta-galactosidase
  IC50: > 80 µM (inactive)

## CCN(CC)c1ccc(NC(=O)COC(=O)c2cccs2)cc1
Caspase-3
  IC50: 16.2 µM (active)
[3]
  IC50: 98.2 µM (active)
Large T antigen
  IC50: 15.2 µM (active)
[4]
  IC50: > 100 µM (inactive)
Leucine aminopeptidase
  IC50: 15.7 µM (active)
[5]
  IC50: 11.7 µM (active)

## CN(C)C(CN)CC1=C(CC(CN)N(C)C)CCC1 (configuration not stated)
SN12K1
  GI50: > 100 µM (inactive)
P388
  GI50: > 100 µM (inactive)
P388/ADR
  GI50: > 100 µM (inactive)

## COc1cc2c(cc1OC)C(Cc1c3ccccc3cc3ccccc13)N(C)CC2 (configuration not stated)
SN12K1
  GI50: 15.5 µM (inactive)
P388
  GI50: 18.7 µM (inactive)
P388/ADR
  GI50: 15.8 µM (inactive)

## CN1CCN(C(=O)/C=C/c2ccc(Cl)c(Cl)c2)CC1
Beta-galactosidase
  IC50: > 80 µM (inactive)

## CC(=O)Nc1ccc(C(=O)COC(=O)C2CCCCC2)c(F)c1
Caspase-3
  IC50: 17.5 µM (active)
[3]
  IC50: 20.4 µM (active)
[4]
  IC50: 65.6 µM (active)
[5]
  IC50: 6.32 µM (active)

## C[C@H](CO)N1C[C@H](C)[C@H](CN(C)S(=O)(=O)c2cccc(F)c2)Oc2ncc(C#CC3CCCCC3)cc2C1=O
[6]
  AC50: 32.3 µM (active)
[7]
  AC50: 6.43 µM (active)

## C[C@@H]1CCCCO[C@@H](CN(C)CC2CCCCC2)[C@H](C)CN([C@@H](C)CO)C(=O)c2cc(NC(=O)Nc3cccc4ccccc34)ccc2O1
[6]
  AC50: 47.3 µM (active)
[7]
  AC50: 5.03 µM (active)

## CNC[C@@H]1Oc2cc(C#Cc3cccc(OC)c3)ccc2S(=O)(=O)N([C@@H](C)CO)C[C@@H]1C
[6]
  AC50: 14.9 µM (active)
[7]
  AC50: 9.73 µM (active)

## CCOc1ccc(NC(S)=Nc2ccc(C)c([N+](=O)[O-])c2)cc1
Beta-galactosidase
  IC50: 131 µM (inactive)

## Cc1ccccc1-c1nc(CN2CCC(C(=O)NCCC3=CCCCC3)CC2)c(C)o1
[8]
  CC50: > 40 µM (active)
[9]
  AC50: 7.7 µM (active)
[10]
  AC50: 7.96 µM (active)
[1]
  AC50: 25.6 µM (active)
[11]
  AC50: 6.35 µM (active)
[2]
  AC50: 4.21 µM (active)

— ChEMBL document CHEMBL1201862, “PubChem BioAssay data set” (2004)
